In patent publication US9353081B2, “Bicyclic dihydroquinoline-2-one derivatives” (Hoffmann-La Roche Inc., priority 2011, dated 2016):

Key:
human CYP11B1 = human CYP11B1 (Homo sapiens (Human), UniProt P15538); experiment: G-402 cellular enzyme assay, human CYP11B1 (cortisol release, HTRF); format: cell-based; conditions: G-402 cells expressing human CYP11B1; 1 μM Deoxycortisol
From the text: (§1) Specifically we developed stable G-402 cells expressing ectopically human CYP11B1, human CYP11B2, human CYP11A1, cynomolgus CYP11B1 or cynomolgus CYP11B2 enzyme activity.
(§2) The expression plasmids contains the ORF for either human/cyno CYP11B1 or CYP11B2 under the control of a suitable promoter (CMV-promoter) and a suitable resistance marker (neomycin). Using standard techniques the expression plasmid is transfected into G-402 cells and these cells are then selected for expressing the given resistance markers. Individual cell-clones are then selected and assessed for displaying the desired enzymatic activity using 11-Deoxycorticosterone (Cyp11B2) or 11-Deoxycortisol (Cyp11B1) as a substrate.
(§3) For assaying enzymatic activity, cells were plated onto 96 well plates and incubated for 16 h. An aliquot of the supernatant is then transferred and analyzed for the concentration of the expected product (Aldosterone for CYP11B2; Cortisol for CYP11B1). The concentrations of these steroids can be determined using HTRF assays from CisBio analyzing either Aldosterone or Cortisol.
(§4) Inhibition of the release of produced steroids can be used as a measure of the respective enzyme inhibition by test compounds added during the cellular enzyme assay. The dose dependent inhibition of enzymatic activity by a compound is calculated by means of plotting added inhibitor concentrations x-axes) vs. measured steroid/product level (y-axes). The inhibition is then calculated by fitting the following 4-parameter sigmoidal function (Morgan-Mercer-Flodin (MMF) model) to the raw data points using the least squares method:
(§5) [formula] wherein, A is the maximum y value, B is the EC50 factor determined using XLFit, C is the minimum y value and D is the slope value.
(§6) EC50 values for compounds claimed herein were tested with the G402-based assay system described. Cyp11B2 enzyme activity was tested in presence of 1 μM Deoxycorticosterone and variable amounts of inhibitors; Cyp11B1 enzyme activity was tested in presence of 1 μM Deoxycortisol and variable amounts of inhibitors.

human CYP11B2 = human CYP11B2 (Homo sapiens (Human), UniProt P19099); experiment: G-402 cellular enzyme assay, human CYP11B2 (aldosterone release, HTRF); format: cell-based; conditions: G-402 cells expressing human CYP11B2; 1 μM Deoxycorticosterone
Sequence of human CYP11B2 (P19099 25-503): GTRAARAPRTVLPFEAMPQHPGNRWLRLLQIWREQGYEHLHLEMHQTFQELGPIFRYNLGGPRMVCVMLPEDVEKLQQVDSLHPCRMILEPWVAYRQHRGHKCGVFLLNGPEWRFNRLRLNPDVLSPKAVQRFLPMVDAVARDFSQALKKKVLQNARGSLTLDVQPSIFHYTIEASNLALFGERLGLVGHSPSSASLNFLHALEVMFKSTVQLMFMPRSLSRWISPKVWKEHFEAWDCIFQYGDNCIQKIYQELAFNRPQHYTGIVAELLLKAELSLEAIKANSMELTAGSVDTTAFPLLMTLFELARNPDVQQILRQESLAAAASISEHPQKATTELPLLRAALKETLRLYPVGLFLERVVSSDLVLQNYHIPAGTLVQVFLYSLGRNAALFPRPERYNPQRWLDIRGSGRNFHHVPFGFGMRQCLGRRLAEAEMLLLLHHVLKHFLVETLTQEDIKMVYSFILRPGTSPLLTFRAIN
From the text: as §1, §2, §3, §4, §5, §6

Sequence of human CYP11B1 (P15538 25-503): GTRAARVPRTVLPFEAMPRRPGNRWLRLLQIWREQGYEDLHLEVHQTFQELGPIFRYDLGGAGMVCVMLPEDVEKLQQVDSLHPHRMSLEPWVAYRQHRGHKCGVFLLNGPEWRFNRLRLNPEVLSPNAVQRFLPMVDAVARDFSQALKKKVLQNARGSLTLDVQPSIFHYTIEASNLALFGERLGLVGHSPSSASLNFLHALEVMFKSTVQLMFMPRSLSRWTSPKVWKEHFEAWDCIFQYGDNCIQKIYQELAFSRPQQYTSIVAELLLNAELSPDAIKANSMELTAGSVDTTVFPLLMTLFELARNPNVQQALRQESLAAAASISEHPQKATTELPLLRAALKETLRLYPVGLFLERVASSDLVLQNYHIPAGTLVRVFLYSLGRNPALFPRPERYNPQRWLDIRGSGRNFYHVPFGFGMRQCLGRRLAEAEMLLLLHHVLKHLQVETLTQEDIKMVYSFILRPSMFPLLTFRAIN

SMILES: CCC(=O)NC1CCCc2c(-c3ccc4c(c3)CCC(=O)N4C)cncc21 (racemic) [Example 1, (rac)-N-(4-(1-Methyl-2-oxo-1,2,3,4-tetrahydroquinolin-6-yl)-5,6,7,8-tetrahydroisoquinolin-8-yl)propionamide]
- EC50 (human CYP11B1): 2370 nM
- EC50 (human CYP11B2): 30 nM

SMILES: CCS(=O)(=O)NC1CCCc2c(-c3ccc4c(c3)CCC(=O)N4C)cncc21 (racemic) [Example 4, (rac)-N-(4-(1-Methyl-2-oxo-1,2,3,4-tetrahydroquinolin-6-yl)-5,6,7,8-tetrahydroisoquinolin-8-yl)ethanesulfonamide]
- EC50 (human CYP11B1): 4920 nM
- EC50 (human CYP11B2): 97 nM

SMILES: CCC(=O)NC1CCc2c(-c3ccc4c(c3)CCC(=O)N4C)cncc21 (racemic) [Example 7, (rac)-N-(4-(1-Methyl-2-oxo-1,2,3,4-tetrahydroquinolin-6-yl)-6,7-dihydro-5H-cyclopenta[c]pyridin-7-yl)propionamide]
- EC50 (human CYP11B1): 1110 nM
- EC50 (human CYP11B2): 12 nM

SMILES: CCS(=O)(=O)NC1CCc2c(-c3ccc4c(c3)CCC(=O)N4C)cncc21 (racemic) [Example 10, (rac)-N-(4-(1-Methyl-2-oxo-1,2,3,4-tetrahydroquinolin-6-yl)-6,7-dihydro-5H-cyclopenta[c]pyridin-7-yl)ethanesulfonamide]
- EC50 (human CYP11B1): 4170 nM
- EC50 (human CYP11B2): 59 nM

SMILES: CCC(=O)NC1CCc2c(-c3cc4c(cc3F)N(C)C(=O)CC4)cncc21 (racemic) [Example 22, (rac)-N-(4-(7-Fluoro-1-methyl-2-oxo-1,2,3,4-tetrahydroquinolin-6-yl)-6,7-dihydro-5H-cyclopenta[c]pyridin-7-yl)propionamide]
- EC50 (human CYP11B1): 1200 nM
- EC50 (human CYP11B2): 10.2 nM

SMILES: CCS(=O)(=O)NC1CCc2c(-c3cc4c(cc3F)N(C)C(=O)CC4)cncc21 (racemic) [Example 25, (rac)-N-(4-(7-Fluoro-1-methyl-2-oxo-1,2,3,4-tetrahydroquinolin-6-yl)-6,7-dihydro-5H-cyclopenta[c]pyridin-7-yl)ethanesulfonamide]
- EC50 (human CYP11B1): 2980 nM
- EC50 (human CYP11B2): 33.4 nM

SMILES: CCC(=O)NC1CCCc2c(-c3cc4c(cc3F)N(C)C(=O)CC4)cncc21 (racemic) [Example 28, (rac)-N-[4-(7-Fluoro-1-methyl-2-oxo-1,2,3,4-tetrahydro-quinolin-6-yl)-5,6,7,8-tetrahydroisoquinolin-8-yl]-propionamide]
- EC50 (human CYP11B1): 6820 nM
- EC50 (human CYP11B2): 74.9 nM

SMILES: CCC(=O)NC1CCCc2c(-c3cc(Cl)c4c(c3)CCC(=O)N4C)cncc21 (racemic) [Example 33, (rac)-N-[4-(8-Chloro-1-methyl-2-oxo-1,2,3,4-tetrahydro-quinolin-6-yl)-5,6,7,8-tetrahydro-isoquinolin-8-yl]-propionamide]
- EC50 (human CYP11B1): 11600 nM
- EC50 (human CYP11B2): 79.8 nM

SMILES: CCS(=O)(=O)NC1CCCc2c(-c3cc4c(cc3Cl)N(C)C(=O)CC4)cncc21 (racemic) [Example 34, (rac)-Ethanesulfonic acid [4-(7-chloro-1-methyl-2-oxo-1,2,3,4-tetrahydro-quinolin-6-yl)-5,6,7,8-tetrahydro-isoquinolin-8-yl]-amide]
- EC50 (human CYP11B1): 34700 nM
- EC50 (human CYP11B2): 386 nM

SMILES: CCS(=O)(=O)NC1CCCc2c(-c3cc(F)c4c(c3)CCC(=O)N4C)cncc21 (racemic) [Example 36, (rac)-Ethanesulfonic acid [4-(8-fluoro-1-methyl-2-oxo-1,2,3,4-tetrahydro-quinolin-6-yl)-5,6,7,8-tetrahydro-isoquinolin-8-yl]-amide]
- EC50 (human CYP11B1): 20700 nM
- EC50 (human CYP11B2): 239 nM

SMILES: CCS(=O)(=O)NC1CCCc2c(-c3cc(Cl)c4c(c3)CCC(=O)N4C)cncc21 (racemic) [Example 37, (rac)-Ethanesulfonic acid [4-(8-chloro-1-methyl-2-oxo-1,2,3,4-tetrahydro-quinolin-6-yl)-5,6,7,8-tetrahydro-isoquinolin-8-yl]-amide]
- EC50 (human CYP11B1): 13500 nM
- EC50 (human CYP11B2): 199 nM

SMILES: CCC(=O)NC1CCc2c(-c3cc(Cl)c4c(c3)CCC(=O)N4C)cncc21 (racemic) [Example 58, (rac)-N-(4-(8-Chloro-1-methyl-2-oxo-1,2,3,4-tetrahydroquinolin-6-yl)-6,7-dihydro-5H-cyclopenta[c]pyridin-7-yl)propionamide]
- EC50 (human CYP11B1): 7600 nM
- EC50 (human CYP11B2): 44.6 nM

SMILES: CN1C(=O)CCc2cc(-c3cncc4c3CCCC4O)ccc21 (racemic) [Example 67, (rac)-6-(8-Hydroxy-5,6,7,8-tetrahydro-isoquinolin-4-yl)-1-methyl-3,4-dihydroquinolin-2(1H)-one]
- EC50 (human CYP11B1): 206 nM
- EC50 (human CYP11B2): 4.7 nM

SMILES: CCC(=O)NC1CCCc2c(-c3cc4c(cc3Cl)N(C)C(=O)CC4)cncc21 (single isomer, unassigned) [Example 35, N—[(R or S)-4-(7-Chloro-1-methyl-2-oxo-1,2,3,4-tetrahydro-quinolin-6-yl)-5,6,7,8-tetrahydro-isoquinolin-8-yl]-propionamide]
- EC50 (human CYP11B2): 1770 nM

SMILES: CCC(=O)N[C@H]1c2cncc(-c3ccc4c(c3)CCC(=O)N4C)c2CC[C@@H]1C (single isomer, unassigned) [Example 42, (+)-N-[(7S,8R or 7R,8S)-7-Methyl-4-(1-methyl-2-oxo-1,2,3,4-tetrahydro-quinolin-6-yl)-5,6,7,8-tetrahydro-isoquinolin-8-yl]-propionamide]
- EC50 (human CYP11B1): 524 nM
- EC50 (human CYP11B2): 14.5 nM

SMILES: CCC(=O)N[C@@H]1c2cncc(-c3cc4c(cc3F)N(C)C(=O)CC4)c2CC[C@@H]1C (single isomer, unassigned) [Example 43, (−)-N-[(7S,8S or 7R,8R)-4-(7-Fluoro-1-methyl-2-oxo-1,2,3,4-tetrahydro-quinolin-6-yl)-7-methyl-5,6,7,8-tetrahydro-isoquinolin-8-yl]-propionamide]
- EC50 (human CYP11B1): 32000 nM
- EC50 (human CYP11B2): 452 nM

SMILES: CCC(=O)N[C@@H]1c2cncc(-c3ccc4c(c3)CCC(=O)N4C)c2CC[C@@H]1C (single isomer, unassigned) [Example 46, (−)-N-[(7S,8S or 7R,8R)-7-Methyl-4-(1-methyl-2-oxo-1,2,3,4-tetrahydro-quinolin-6-yl)-5,6,7,8-tetrahydro-isoquinolin-8-yl]-propionamide]
- EC50 (human CYP11B1): 19300 nM
- EC50 (human CYP11B2): 467 nM

SMILES: CCC(=O)N[C@@H]1c2cncc(-c3ccc4c(c3)CCC(=O)N4C)c2CC[C@H]1C (single isomer, unassigned) [Example 47, (−)-N-[(7R,8S or 7S,8R)-7-Methyl-4-(1-methyl-2-oxo-1,2,3,4-tetrahydro-quinolin-6-yl)-5,6,7,8-tetrahydro-isoquinolin-8-yl]-propionamide]
- EC50 (human CYP11B2): 1820 nM

SMILES: CCC(=O)N[C@@H]1c2cncc(-c3ccc4c(c3)CCC(=O)N4C)c2CC[C@H]1F (single isomer, unassigned) [Example 50, (−)-N-[(7R,8R or 7S,8S)-7-Fluoro-4-(1-methyl-2-oxo-1,2,3,4-tetrahydro-quinolin-6-yl)-5,6,7,8-tetrahydro-isoquinolin-8-yl]-propionamide]
- EC50 (human CYP11B2): 4320 nM

SMILES: CCC(=O)NC1CCc2c(-c3cc4c(cc3F)N(C)C(=O)CC4)cncc21 (single isomer, unassigned; (-)) [Example 23, (−)-(S or R)—N-(4-(7-Fluoro-1-methyl-2-oxo-1,2,3,4-tetrahydroquinolin-6-yl)-6,7-dihydro-5H-cyclopenta[c]pyridin-7-yl)propionamide]
- EC50 (human CYP11B2): 1380 nM

SMILES: CCS(=O)(=O)NC1CCc2c(-c3cc4c(cc3F)N(C)C(=O)CC4)cncc21 (single isomer, unassigned; (-)) [Example 26, (−)-(S or R)—N-(4-(7-Fluoro-1-methyl-2-oxo-1,2,3,4-tetrahydroquinolin-6-yl)-6,7-dihydro-5H-cyclopenta[c]pyridin-7-yl)ethanesulfonamide]
- EC50 (human CYP11B2): 4550 nM

SMILES: CCS(=O)(=O)NC1CCCc2c(-c3cc(Cl)c4c(c3)CCC(=O)N4C)cncc21 (single isomer, unassigned; (-)) [Example 39, (−)-Ethanesulfonic acid [(S or R)-4-(8-chloro-1-methyl-2-oxo-1,2,3,4-tetrahydro-quinolin-6-yl)-5,6,7,8-tetrahydro-isoquinolin-8-yl]-amide]
- EC50 (human CYP11B2): 130 nM

SMILES: CCC(=O)NC1CCCc2c(-c3cc(Cl)c4c(c3)CCC(=O)N4C)cncc21 (single isomer, unassigned; (-)) [Example 40, (−)-N—[(S or R)-4-(8-Chloro-1-methyl-2-oxo-1,2,3,4-tetrahydro-quinolin-6-yl)-5,6,7,8-tetrahydro-isoquinolin-8-yl]-propionamide]
- EC50 (human CYP11B2): 126 nM

SMILES: CCC(=O)NC1CCc2c(-c3cc(Cl)c4c(c3)CCC(=O)N4C)cncc21 (single isomer, unassigned; (-)) [Example 59, (−)-(S or R)—N-(4-(8-Chloro-1-methyl-2-oxo-1,2,3,4-tetrahydroquinolin-6-yl)-6,7-dihydro-5H-cyclopenta[c]pyridin-7-yl)propionamide]
- EC50 (human CYP11B2): 3290 nM
